Measurements reported in patent US10168342B2, “Lipid probes and uses thereof” (THE SCRIPPS RESEARCH INSTITUTE, priority 2015, dated 2019).
Like-named read-outs stand apart in the source and are kept apart here.

Key:
[1] = molecular target: T1, AEA-DA lipid probe targets in Neuro2a cells (Mus musculus, UniProt P16014)
T1 sequence (P16014 21-677): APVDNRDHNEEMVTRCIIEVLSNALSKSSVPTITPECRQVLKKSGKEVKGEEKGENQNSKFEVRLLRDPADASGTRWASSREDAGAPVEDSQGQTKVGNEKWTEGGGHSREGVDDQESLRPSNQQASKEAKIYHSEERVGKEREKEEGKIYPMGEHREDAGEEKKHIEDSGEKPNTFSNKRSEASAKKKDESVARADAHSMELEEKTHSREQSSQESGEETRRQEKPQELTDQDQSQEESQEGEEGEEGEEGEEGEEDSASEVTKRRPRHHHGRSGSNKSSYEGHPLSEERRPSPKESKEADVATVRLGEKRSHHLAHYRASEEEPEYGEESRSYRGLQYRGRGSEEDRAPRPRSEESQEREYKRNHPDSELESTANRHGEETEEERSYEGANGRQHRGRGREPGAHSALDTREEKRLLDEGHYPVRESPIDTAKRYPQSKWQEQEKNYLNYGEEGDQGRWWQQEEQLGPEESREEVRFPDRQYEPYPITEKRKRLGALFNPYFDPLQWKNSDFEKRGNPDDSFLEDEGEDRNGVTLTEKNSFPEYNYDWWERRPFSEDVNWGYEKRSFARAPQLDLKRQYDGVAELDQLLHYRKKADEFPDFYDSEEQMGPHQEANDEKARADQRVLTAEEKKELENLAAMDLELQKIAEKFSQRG

[2] = molecular target: T2, AEA-DA lipid probe targets in Neuro2a cells (Mus musculus, UniProt P32037)
T2 sequence (P32037 1-493): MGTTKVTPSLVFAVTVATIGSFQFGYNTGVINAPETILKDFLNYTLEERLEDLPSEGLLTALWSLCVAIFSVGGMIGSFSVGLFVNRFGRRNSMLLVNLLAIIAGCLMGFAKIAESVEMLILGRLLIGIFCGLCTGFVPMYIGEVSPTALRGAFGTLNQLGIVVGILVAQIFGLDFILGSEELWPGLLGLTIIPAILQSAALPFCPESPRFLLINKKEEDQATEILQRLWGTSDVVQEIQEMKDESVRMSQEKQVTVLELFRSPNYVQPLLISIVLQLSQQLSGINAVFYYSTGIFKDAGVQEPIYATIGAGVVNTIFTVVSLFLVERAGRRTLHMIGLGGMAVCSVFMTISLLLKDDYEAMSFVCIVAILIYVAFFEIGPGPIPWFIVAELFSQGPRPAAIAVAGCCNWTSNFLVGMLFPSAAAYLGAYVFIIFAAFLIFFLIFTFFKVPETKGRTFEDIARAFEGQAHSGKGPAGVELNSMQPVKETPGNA

[3] = molecular target: T3, AEA-DA lipid probe targets in Neuro2a cells (Mus musculus, UniProt Q8VHE0)
T3 sequence (Q8VHE0 1-760): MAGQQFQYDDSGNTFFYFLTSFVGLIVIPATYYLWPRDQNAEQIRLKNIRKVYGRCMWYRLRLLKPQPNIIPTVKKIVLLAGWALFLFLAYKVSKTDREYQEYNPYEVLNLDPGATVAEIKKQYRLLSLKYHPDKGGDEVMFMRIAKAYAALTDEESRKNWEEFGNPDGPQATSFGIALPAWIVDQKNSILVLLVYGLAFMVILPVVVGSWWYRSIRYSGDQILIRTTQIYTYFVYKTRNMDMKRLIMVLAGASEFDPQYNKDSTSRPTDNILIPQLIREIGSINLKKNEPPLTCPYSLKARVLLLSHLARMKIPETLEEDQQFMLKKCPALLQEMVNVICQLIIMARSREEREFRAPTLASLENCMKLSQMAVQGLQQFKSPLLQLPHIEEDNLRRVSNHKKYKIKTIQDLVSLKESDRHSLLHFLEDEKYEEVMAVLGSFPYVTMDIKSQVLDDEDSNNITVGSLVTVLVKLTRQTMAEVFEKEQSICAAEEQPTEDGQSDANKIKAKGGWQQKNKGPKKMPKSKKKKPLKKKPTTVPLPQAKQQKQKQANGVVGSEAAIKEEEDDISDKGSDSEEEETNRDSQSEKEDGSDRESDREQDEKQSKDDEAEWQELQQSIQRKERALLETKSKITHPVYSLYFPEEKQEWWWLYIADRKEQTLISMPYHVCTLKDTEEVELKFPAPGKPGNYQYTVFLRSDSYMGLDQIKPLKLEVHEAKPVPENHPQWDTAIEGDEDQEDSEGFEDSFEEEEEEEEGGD

[4] = molecular target: T4, AEA-DA lipid probe targets in Neuro2a cells (Mus musculus, UniProt Q9CZS1)
T4 sequence (Q9CZS1 20-519): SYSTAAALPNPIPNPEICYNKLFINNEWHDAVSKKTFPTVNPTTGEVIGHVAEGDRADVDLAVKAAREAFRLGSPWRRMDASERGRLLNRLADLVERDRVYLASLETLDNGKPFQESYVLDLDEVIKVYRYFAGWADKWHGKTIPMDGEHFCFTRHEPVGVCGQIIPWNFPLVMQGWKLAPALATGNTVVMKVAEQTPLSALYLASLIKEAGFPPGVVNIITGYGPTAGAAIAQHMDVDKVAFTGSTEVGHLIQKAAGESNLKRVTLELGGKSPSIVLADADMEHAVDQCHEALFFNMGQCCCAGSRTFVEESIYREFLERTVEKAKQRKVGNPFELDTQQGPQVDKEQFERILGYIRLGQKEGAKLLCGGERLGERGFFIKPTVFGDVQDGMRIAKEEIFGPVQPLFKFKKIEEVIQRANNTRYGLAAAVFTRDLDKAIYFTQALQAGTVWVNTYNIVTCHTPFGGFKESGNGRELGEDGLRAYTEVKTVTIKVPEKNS

[5] = molecular target: AEA-DA lipid probe targets in Neuro2a cells (Mus musculus, UniProt G5E895); settings: competitor 25 μM
Chain of AEA-DA lipid probe targets in Neuro2a cells (Mus musculus, UniProt G5E895) (G5E895 1-316): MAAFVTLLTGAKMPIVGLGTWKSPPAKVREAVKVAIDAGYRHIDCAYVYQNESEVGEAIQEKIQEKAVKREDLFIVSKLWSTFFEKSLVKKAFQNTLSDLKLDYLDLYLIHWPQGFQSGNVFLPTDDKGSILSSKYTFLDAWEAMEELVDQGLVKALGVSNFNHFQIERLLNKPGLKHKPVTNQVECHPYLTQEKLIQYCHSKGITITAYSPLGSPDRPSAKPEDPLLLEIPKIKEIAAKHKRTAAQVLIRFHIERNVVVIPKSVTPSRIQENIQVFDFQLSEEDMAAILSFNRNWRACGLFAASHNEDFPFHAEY

[6] = molecular target: T5, AEA-DA lipid probe targets in Neuro2a cells (Mus musculus, UniProt Q3KNM2); settings: for SILAC ratio, MARCH5 (Q3KNM2): Neuro2a cells, AEA-DA probe
T5 sequence (Q3KNM2 1-278): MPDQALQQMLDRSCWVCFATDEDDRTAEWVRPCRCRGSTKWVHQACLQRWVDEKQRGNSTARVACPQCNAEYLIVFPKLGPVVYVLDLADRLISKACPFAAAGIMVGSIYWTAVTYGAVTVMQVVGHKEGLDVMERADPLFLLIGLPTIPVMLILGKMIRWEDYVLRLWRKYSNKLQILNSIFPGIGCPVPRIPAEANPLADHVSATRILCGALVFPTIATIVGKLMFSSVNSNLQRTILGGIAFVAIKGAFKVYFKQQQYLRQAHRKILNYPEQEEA

SMILES | SILAC ratio, Akr1b10 [5] | SILAC ratio Chgb ([1]; competitor 25 μM) | SILAC ratio, Slc2a3 ([2]; competitor 25 μM) | SILAC ratio, MARCH5 (Q3KNM2) ([6]; competitor 25 μM) | SILAC ratio, March5 ([6]; competitor 25 μM) | SILAC ratio Sec63 ([3]; competitor 25 μM) | SILAC ratio, Aldh1b1 ([4]; competitor 25 μM) | further results
CCCCC/C=C\C/C=C\C/C=C\C/C=C\CCCC(=O)NCCO [AEA, anandamide, reference compound] | – | – | – | – | – | – | – | SILAC ratio Chgb ([1]; competitor 200 μM): 1.2; SILAC ratio, Slc2a3 ([2]; competitor 200 μM): 1.0; SILAC ratio Sec63 ([3]; competitor 200 μM): 1.5; SILAC ratio, Aldh1b1 ([4]; competitor 200 μM): 2.7
O=C(/C=C/c1cccnc1)NCCCCC1CCN(C(=O)c2ccccc2)CC1 [FK-866, reference compound] | 1.9 | 0.9 | 1.1 | 1.3 | 1.3 | 1.1 | 1.3 | –
CN1CCN(C(=O)c2c(-c3ccccc3)c3cc([N+](=O)[O-])ccc3n2C)CC1 [KML110, (1-Methyl-5-nitro-3-phenyl-1H-indol-2-yl)(4-methylpiperazin-1-yl)methanone] | 3.9 | 1.1 | 1.2 | – | 1.5 | 1.5 | 1.7 | –
CN1CCN(C(=O)c2[nH]c3ccc([N+](=O)[O-])cc3c2-c2ccccc2)CC1 [MJN228, (4-Methylpiperazin-1-yl)(5-nitro-3-phenyl-1H-indol-2-yl)methanone] | 2.8 | 0.9 | 1.4 | 1.1 | 1.1 | 1.5 | 1.6 | SILAC ratio Chgb ([1]; competitor 10 μM): 1.2; SILAC ratio Chgb ([1]; competitor 50 μM): 0.4; SILAC ratio Chgb ([1]; competitor 100 μM): 0.4; SILAC ratio, Slc2a3 ([2]; competitor 10 μM): 1.2; SILAC ratio, Slc2a3 ([2]; competitor 50 μM): 1.2; SILAC ratio, Slc2a3 ([2]; competitor 100 μM): 1.2; SILAC ratio, March5 ([6]; competitor 10 μM): 1.1; SILAC ratio, March5 ([6]; competitor 50 μM): 1.0; SILAC ratio, March5 ([6]; competitor 100 μM): 1.1; SILAC ratio Sec63 ([3]; competitor 10 μM): 1.4; SILAC ratio Sec63 ([3]; competitor 50 μM): 1.8; SILAC ratio Sec63 ([3]; competitor 100 μM): 1.8; SILAC ratio, Aldh1b1 ([4]; competitor 10 μM): 1.2; SILAC ratio, Aldh1b1 ([4]; competitor 50 μM): 2.0; SILAC ratio, Aldh1b1 ([4]; competitor 100 μM): 2.6
C=CCN(C)CCCCCCOc1ccc(C(=O)c2ccc(Br)cc2)c(F)c1 [Ro 48-8071, reference compound] | 1.5 | 0.7 | 1.0 | 1.1 | 1.1 | 1.0 | 1.6 | –
